In US6034062A, “Bone morphogenetic protein (BMP)-9 compositions and their uses” (Genetics Institute, Inc., priority 1997, dated 2000):

What was measured:
[1] = tested on: Articular cartilage explants from calf carpal joints; assay: Articular cartilage assay (proteoglycan synthesis, sulfate incorporation); assay type: cell-based; settings: 100 ng/ml, calf articular cartilage explants
Experimental: The effect of BMP-9 on articular cartilage proteoglycan and DNA synthesis is assayed to determine if BMP-9 is involved in the regulation of metabolism of differentiated articular cartilage.
Articular cartilage explants from calf carpal joints are maintained in DMEM with 50 μg/ml ascorbate, 4 mM glutamine and antibiotics for 3 days. Cytokines (rhBMP-2, rhBMP-4, rhBMP-6 and rhBMP-9, IGF-1, bFGF (1-1000 ng/ml), and TGFβ (1-100 ng/ml)) are added to the medium and culture is continued for 3 more days. Medium is changed daily. Twenty-four hours prior to harvest, explants are pulsed with 50 μCi/ml ^35 SO4 or 25 μCi/ml ^3 H-thymidine. Explants are solubilized and separation of free isotope is performed by gel chromatography. Total DNA of each explant is measured by a spectrophotometric assay.

[2] = tested on: IMCD-3 cells; assay: IMCD-3 cell condensation and tubulogenesis in collagen matrix; assay type: cell-based; settings: IMCD-3 cells in 3-dimensional collagen gel, 100 ng/ml, 6 days, serum-free
Experimental: Several cell lines are tested for BMP-9 responsiveness in vitro. Cell proliferation, as indicated by [^3 H]thymidine incorporation, is determined in cell lines derived from kidney and lung. Cell proliferation is determined by measuring [^3 H]thymidine incorporation in subconfluent cells treated for 24 h with or without growth factors. NRK-52E (ATCC CRL 1571), WI-38 (ATCC CCL-75), CCD-11Lu (ATCC CCL-202), CCD-16Lu (ATCC CCL-204), and A-549 (ATCC CCL-185) cell lines are placed at 10^4 cells/well in 96 well plates and assayed for [^3 H]thymidine incorporation as described above. IMCD-3 cells (ATCC #CRL-2123) are cultured in a collagen matrix as described by Barros et al., PNAS USA 92:4412-4416 (1995), and treated with growth factors for 6 days to allow tubule formation.
In contrast, BMP-9 appeared to stimulate proliferation in several fibroblast cell lines derived from lung. […] The effect of rhBMP-9 on tubulogenesis was examined in IMCD-3 cells, another epithelial kidney cell line. […] It is therefore contemplated that both lung and kidney cells are physiological targets for BMP-9.

[3] = tested on: BMP-9 receptors expressed on HepG2 cells; assay: 125I-BMP-9 binding to HepG2 cells; settings: HepG2 cells, 125I-BMP-9 and 250-fold excess of unlabeled ligand
Experimental: BMP-9 responsiveness in parenchymal liver cells is tested by screening four liver cell lines for their ability to bind iodinated, CHO-derived BMP-9. […] Specific binding of BMP-9 to HepG2 cells is carried out by incubating HepG2 cells grown to confluence in Dulbecco's Modified Eagle's Medium (DME) containing 10% heat-inactivated fetal calf serum (FCS) on gelatinized 6 well plates with 2 ng/ml ^125 I-BMP-9 and increasing concentrations of unlabelled BMP-9 in binding buffer (136.9 mM NaCl, 5.37 mM KCl, 1.26 mM CaCl2, 0.64 mM MgSO4, 0.34 mM Na2 HPO4, 0.44 mM KH2 PO4, 0.49 mM MgCl2, 25 mM HEPES and 0.5% BSA, pH 7.4) for 20 hours at 4° C. to achieve binding equilibrium. This incubation follows a one hour preincubation at 37° C. in binding buffer alone. For crosslinking experiments, the cells were incubated with 500 μM disuccinimidyl suberate for 20 minutes at […] following binding. Cell extracts were analyzed on SDS-PAGE. […] To test the binding specificity of the receptors for BMP-9, HepG2 cells were incubated with ^125 I-BMP-9 and a 250-fold excess of different unlabeled ligands.

[4] = tested on: primary rat hepatocytes; assay: Primary rat hepatocyte 3H-thymidine incorporation; assay type: cell-based; settings: subconfluent primary rat hepatocytes, 36 hours, serum-free
Experimental: As a first indication of BMP-9 effects on confluent, serum starved HepG2 cells, cell proliferation is examined as determined by ^3 H-thymidine incorporation and cell counting. HepG2 cells are plated at […] in 96 well plates and cultured for 48 hours in DME/0.1% FCS to synchronize the cell cycle are treated for 24 hours with or without BMP-9 in the presence of 0.1% FCS. In ^3 H-thymidine incorporation assays, ^3 H-thymidine was included during the last 4 hours of treatment and cellular DNA was collected with a 96 well plate cell harvester. Proliferation was assayed by quantifying ethanol-precipitable ^3 H-thymidine incorporation by liquid scintillation counting. For cell counting assays, cells were trypsinized and counted with a hemacytometer. […] BMP-9 stimulates ^3 H-thymidine incorporation in HepG2 cells approximately five fold.
To determine if this proliferative effect of BMP-9 was unique to the HepG2 liver tumor cell line, primary rat hepatocytes were tested for effects of BMP-9 on ^3 H-thymidine incorporated as shown in FIG. 4.

## TGFβ
[1]
  proteoglycan synthesis: significantly more active in stimulating proteoglycan synthesis

## rhHGF: recombinant human HGF, inducer of tubulogenesis in IMCD-3 cells
[2]
  cell condensation and tubulogenesis: induced a marked branching tubulogenesis

## TGF-β1: transforming growth factor β1
[3]
  crossreactivity of BMP-9 receptors with unlabeled ligand: no crossreactivity
[4]
  3H-thymidine incorporation: inhibitory, not stimulatory

## EGF: epidermal growth factor (NSDSECPLSHDGYCLHDGVCMYIEALDKYACNCVVGYIGERCQYRDLKWWELR; UniProt P01133 971-1023, looked up)
[4]
  3H-thymidine incorporation: markedly
